Values joined by “and” are separate entries in the source; they are usually repeats but may differ in a detail not shown here. Equal entries are not always repeated. Positions of bridges follow the written chain, without caps; N, C: chain ends. Non-standard residues stand in square brackets, D forms with d. Residues, ends and D or L forms follow the SMILES beside them. NMeF = CN[C@@H](Cc1ccccc1)C(=O)O; NMeNle = CCCC[C@H](NC)C(=O)O; Sar = CNCC(=O)O
Tests used:
[1] = molecular target: T1, PD-L1 (aa 19-239) (Homo sapiens, UniProt Q9NZQ7); experiment: SEC-MALS of PD-L1 complexes; assay type: binding; settings: 15 µmol/L PD-L1, 100 µmol/L compound
[2] = test system: MC38 huPD-L1 tumors; experiment: MC38 huPD-L1 tumor efficacy in C57BL/6 mice; assay type: in vivo, mouse
[3] = test system: human T cells with CHO PD-L1 cells; experiment: Artificial antigen-presenting cell system, IFNγ secretion; assay type: cell-based; settings: for Maximal levels of IFNγ, induction: atezolizumab at 10 nmol/L
[4] = molecular target: T2, PD-L1 in CHO PD-L1 cells (Homo sapiens, UniProt Q9NZQ7); experiment: Confocal microscopy of PD-L1 internalization; assay type: cell-based; settings: 18 hours, INCB086550 1 µmol/L, atezolizumab 10 µg/mL
[5] = 28-day toxicology study in monkeys; assay type: in vivo, monkey
[6] = molecular target: human PD-L1 on MBT2 clones (Homo sapiens, UniProt Q9NZQ7); experiment: Isogenic MBT2 cell line PD-L1 internalization; assay type: cell-based; settings: EC50, PD-L1 internalization (MIH1), 16 hours
[7] = test system: MC38 huPD-L1 tumors; experiment: MC38 huPD-L1 tumor efficacy in NSG mice; assay type: in vivo, mouse; settings: NSG mice, 2, 20, 200 mg/kg b.i.d.
[8] = molecular target: T3, PD-L1 on CHO PD-L1 cells (Homo sapiens, UniProt Q9NZQ7); experiment: Cell-based PD-1 binding assay; settings: concentrations ≥160 nmol/L
[9] = Tolerability in mice; settings: mouse, in vivo
[10] = test system: target lesion; experiment: Clinical activity in phase I study; assay type: in vivo, human; settings: patient, week 24
[11] = molecular target: human PD-L2 (Homo sapiens, UniProt Q9BQ51); experiment: PD-L2/PD-1 HTRF binding assay
[12] = molecular target: mouse PD-L1 (Mus musculus, UniProt Q9EP73); experiment: PD-L1/PD-1 HTRF binding assay, mouse PD-L1
[13] = 28-day toxicology study in rats; assay type: in vivo, rat
[14] = test system: NFAT signaling; experiment: NFAT reporter assay; assay type: cell-based; settings: read-out: NFAT activation (IC50 in Table 1, EC50 in text)
[15] = test system: MDA-MB-231 tumors; experiment: MDA-MB-231 tumor efficacy in NSG mice; assay type: in vivo, mouse; settings: 20 mg/kg
[16] = molecular target: PD-L1 on MC38 huPD-L1 tumors (Homo sapiens, UniProt Q9NZQ7); experiment: PD-L1 levels on MC38 huPD-L1 tumors; assay type: in vivo, mouse; settings: 200 mg/kg, clone MIH1
[17] = molecular target: T4, PD-L1 on monocytes (Homo sapiens, UniProt Q9NZQ7); experiment: Available PD-L1 on monocytes from clinical study patients; assay type: in vivo
[18] = molecular target: rat PD-L1 (Rattus norvegicus, UniProt D4AE25); experiment: PD-L1/PD-1 HTRF binding assay, rat PD-L1; settings: human PD-1
[19] = molecular target: T4, PD-L1 on monocytes; experiment: Unoccupied PD-L1 on monocytes in human whole blood; assay type: cell-based
[20] = test system: plasma CXCL9, CXCL10, IFNγ, PD-L1; experiment: Proteins in peripheral blood of phase I patients; assay type: in vivo, human
[21] = molecular target: T5, PD-L1 (Homo sapiens, UniProt Q9NZQ7); experiment: Flow cytometry competition with anti–PD-L1 mAbs on CHO PD-L1 cells; assay type: cell-based; settings: 1 µmol/L
Target sequence in this assay (Q9NZQ7 19-290): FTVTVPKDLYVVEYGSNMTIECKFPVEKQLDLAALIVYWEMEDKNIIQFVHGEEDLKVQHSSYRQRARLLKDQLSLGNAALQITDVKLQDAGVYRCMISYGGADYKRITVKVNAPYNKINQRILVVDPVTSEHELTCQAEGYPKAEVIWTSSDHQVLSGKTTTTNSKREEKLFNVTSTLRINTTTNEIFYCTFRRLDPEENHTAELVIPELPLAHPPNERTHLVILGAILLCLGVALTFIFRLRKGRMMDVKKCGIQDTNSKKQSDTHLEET

[22] = molecular target: T5, PD-L1; experiment: PD-L1/PD-1 HTRF binding assay, human PD-L1
Target sequence in this assay (Q9NZQ7 19-238 limits assumed): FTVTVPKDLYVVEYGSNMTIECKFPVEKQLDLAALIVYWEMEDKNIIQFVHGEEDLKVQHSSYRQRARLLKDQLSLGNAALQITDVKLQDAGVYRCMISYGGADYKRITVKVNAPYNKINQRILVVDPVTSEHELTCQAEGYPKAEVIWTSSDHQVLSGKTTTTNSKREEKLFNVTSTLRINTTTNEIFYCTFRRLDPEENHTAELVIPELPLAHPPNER

[23] = molecular target: Human PD-L1-FLAG tag protein (Homo sapiens, UniProt Q9NZQ7); experiment: SPR antibody competition; assay type: binding; settings: 1 µM
[24] = molecular target: PD-L1 on monocytes (Macaca fascicularis, UniProt G7PSE7); experiment: Unoccupied PD-L1 on monocytes in cynomolgus whole blood; assay type: cell-based, cynomolgus monkey; settings: read-out: EC50, reducing unoccupied cell-surface PD-L1 on monocytes
[25] = test system: PD-1–mediated SHP recruitment; experiment: PD-1–SHP reporter assay; assay type: cell-based; settings: read-out: IC50, SHP recruitment
[26] = molecular target: cynomolgus PD-L1 (Macaca fascicularis, UniProt G7PSE7); experiment: PD-L1/PD-1 HTRF binding assay, cynomolgus PD-L1
[27] = molecular target: T3, PD-L1 on CHO PD-L1 cells; experiment: Unoccupied and total PD-L1 by flow cytometry; assay type: cell-based; settings: 18 hours
[28] = molecular target: T2, PD-L1 in CHO PD-L1 cells; experiment: Total PD-L1 by Western blot; assay type: cell-based; settings: 0.2 or 1 µM
[29] = molecular target: T3, PD-L1 on CHO PD-L1 cells; experiment: Live-cell imaging of PD-L1 internalization; assay type: cell-based; settings: 1 µmol/L
[30] = molecular target: T1, PD-L1 (aa 19-239); experiment: Isothermal titration calorimetry; assay type: binding
[31] = all tested doses up to 1,000 mg/kg

Chain of human PD-L1 on MBT2 clones (Q9NZQ7 19-127 limits assumed): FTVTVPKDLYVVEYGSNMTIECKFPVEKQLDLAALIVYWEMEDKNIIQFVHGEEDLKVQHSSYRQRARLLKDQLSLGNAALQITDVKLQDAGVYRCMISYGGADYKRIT
T1 sequence (Q9NZQ7 19-239): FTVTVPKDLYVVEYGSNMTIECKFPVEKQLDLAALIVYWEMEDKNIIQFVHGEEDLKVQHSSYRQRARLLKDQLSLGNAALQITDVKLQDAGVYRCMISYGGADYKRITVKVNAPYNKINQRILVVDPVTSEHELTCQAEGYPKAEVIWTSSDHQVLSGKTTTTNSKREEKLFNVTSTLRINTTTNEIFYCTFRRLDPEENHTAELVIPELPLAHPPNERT
T4 sequence (Q9NZQ7 19-290): as the sequence (Q9NZQ7 19-290) above
T2 sequence (Q9NZQ7 19-290): as above
T3 sequence (Q9NZQ7 19-290): as above
Chain of mouse PD-L1 (Q9EP73 19-238 limits assumed): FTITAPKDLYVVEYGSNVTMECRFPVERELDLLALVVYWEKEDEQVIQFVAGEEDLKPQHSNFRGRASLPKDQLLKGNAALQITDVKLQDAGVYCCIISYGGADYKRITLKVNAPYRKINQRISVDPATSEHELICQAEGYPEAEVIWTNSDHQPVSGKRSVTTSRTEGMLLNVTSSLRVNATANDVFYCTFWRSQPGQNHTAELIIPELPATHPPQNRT
Chain of human PD-L2 (Q9BQ51 20-219 limits assumed): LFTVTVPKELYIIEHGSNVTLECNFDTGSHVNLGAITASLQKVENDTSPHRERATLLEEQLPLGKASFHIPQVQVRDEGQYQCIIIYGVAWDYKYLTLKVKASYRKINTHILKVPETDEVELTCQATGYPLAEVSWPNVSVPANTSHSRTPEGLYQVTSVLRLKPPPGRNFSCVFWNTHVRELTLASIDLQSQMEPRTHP
Chain of rat PD-L1 (D4AE25 19-238): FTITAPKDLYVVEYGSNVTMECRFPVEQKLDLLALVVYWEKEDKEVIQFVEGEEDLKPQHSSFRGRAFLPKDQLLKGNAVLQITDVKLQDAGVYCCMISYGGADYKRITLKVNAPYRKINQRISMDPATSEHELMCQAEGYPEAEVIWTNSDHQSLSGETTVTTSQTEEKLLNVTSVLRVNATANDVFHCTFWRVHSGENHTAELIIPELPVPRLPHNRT
Chain of rat PD-L1 (Q15116 25-167 partner): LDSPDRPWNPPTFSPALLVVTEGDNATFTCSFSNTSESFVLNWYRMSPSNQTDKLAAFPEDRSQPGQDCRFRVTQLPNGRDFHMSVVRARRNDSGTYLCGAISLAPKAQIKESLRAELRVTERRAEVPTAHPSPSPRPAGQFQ
Chain of cynomolgus PD-L1 (G7PSE7 19-239): as the sequence (Q9NZQ7 19-239) above, with A33T, A34S, S62N, R68Q, Q82R, F173L, T185A, T192I, H215L counted along it
Chain of cynomolgus PD-L1 (Q15116 25-167 partner): as the sequence (Q15116 25-167 partner) above
Chain of PD-L1 on monocytes (Macaca fascicularis, UniProt G7PSE7) (G7PSE7 19-290): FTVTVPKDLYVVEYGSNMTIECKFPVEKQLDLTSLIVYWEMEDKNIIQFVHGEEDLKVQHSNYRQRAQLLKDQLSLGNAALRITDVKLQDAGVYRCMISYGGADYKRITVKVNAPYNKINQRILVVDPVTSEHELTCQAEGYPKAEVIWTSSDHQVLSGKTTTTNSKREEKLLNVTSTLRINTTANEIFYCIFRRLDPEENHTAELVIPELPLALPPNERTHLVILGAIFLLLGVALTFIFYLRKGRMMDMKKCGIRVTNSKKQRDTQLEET
Chain of PD-L1 on MC38 huPD-L1 tumors (Q9NZQ7 19-290): as the sequence (Q9NZQ7 19-290) above
Chain of Human PD-L1-FLAG tag protein (Q9NZQ7 19-290): as above

For `CCCC[C@H]1C(=O)N(C)CC(=O)N[C@@H](CC(=O)O)C(=O)N[C@@H](C(C)C)C(=O)N(C)[C@@H](Cc2ccccc2)C(=O)N[C@@H](Cc2ccc(O)cc2)C(=O)N(C)CC(=O)N[C@@H](Cc2c[nH]c3ccccc23)C(=O)N[C@@H](Cc2ccc(O)cc2)C(=O)N[C@@H](CC(C)C)C(=O)N[C@H](C(=O)NCC(N)=O)CSCC(=O)N[C@@H](Cc2ccccc2)C(=O)N(C)[C@@H](Cc2ccccc2)C(=O)N1C` [peptide 71, reference compound] ({CH2CO}-F[NMeF][NMeNle][Sar]DV[NMeF]Y[Sar]WYLCG-NH2; thioether N-13; N-terminus and C-terminus assumed), the “SEC-MALS peak of PD-L1 in presence of compound” value [1] was “approximately 33 kDa”.
With “atezolizumab: clinical anti–PD-L1 monoclonal antibody [reference compound]” the “tumor growth inhibition (TGI)” value ([2]; 5 mg/kg intraperitoneally every 5 days) was 73%, the “Maximal levels of IFNγ, induction” value [3] was 433% and the “PD-L1 internalization, clone 28-8 staining” value [4] was “only minor levels of PD-L1 internalization”.
With `Cc1c(Nc2nccc3cc(CN4CC[C@@H](O)C4)cnc23)cccc1-c1cccc(-c2nc3cc(CN4CC[C@@H](C(=O)O)C4)cc(C#N)c3o2)c1C` [INCB086550] the Tolerability [5, 31] was “well tolerated”, the Doses with emesis ([5]; no evidence of target organ toxicity) was ≥ 200 mg/kg/day and the EC50 ([6]; MBT2-PD-L1 high) was 0.1 nM. For the same compound, the EC50 ([6]; MBT2-PD-L1 low) was 3.7 nM, the EC50 ([6]; MBT2-PD-L1 medium) was 0.4 nM and the “Antitumor activity in immunodeficient mice” value [7] was “abolished”. For the same compound, the “Inhibition of PD-1/PE binding” value [8] was > 90%, the “Adverse effects in mice” value [9] was “no adverse effects” and the Preliminary clinical activity [10] was “decrease in target lesion volume”. For the same compound, the IC50 [11] was > 10000 nM, the “Inhibition of binding of PD-L2 to human PD-1” value ([11]; concentrations up to 10 µmol/L) was “not inhibited” and the IC50 [12] was > 10000 nM. The “Binding to mouse PD-L1” value ([12]; HTRF) was “not detected”, the “Dose at which associated events were observed (minimal to mild, nonadverse)” value [13] was 1,000 mg/kg/day and the Tolerability [13, 31] was “well tolerated”. For the same compound, the EC50 [14] was 21.4 ± 8.4 nM, the “Antitumor activity in immunodeficient mice” value [15] was “abolished” and the “Maximum reduction of occupied PD-L1” value [16] was > 90%. For the same compound, the “tumor growth inhibition (TGI)” value ([2]; 2 mg/kg p.o. b.i.d., day 16) was 32%, the “tumor growth inhibition (TGI)” value ([2]; 20 mg/kg p.o. b.i.d., day 16) was 66% and the “tumor growth inhibition (TGI)” value ([2]; 200 mg/kg p.o. b.i.d., day 16) was 69%. For the same compound, the “Dose reaching maximum inhibition of free PD-L1” value [17] was 200 mg b.i.d, the IC50 [18] was 1.9 nM and < 1.5 nM and the “Maximal levels of IFNγ, induction” value [3] was 425%. The Toxicity to cells ([3]; cell-based assays) was “No overt toxicity”, the EC50 [19] was 88 nM and the IC90 ([19]; read-out: whole blood IC90) was 792 nM. The “Increase in plasma cell-free PD-L1 vs baseline” value ([20]; all dose levels, cycle 2 day 1) was 1.4 fold, the “Increase in plasma IFNγ vs baseline” value ([20]; cycle 1 day 8) was 3.8 fold and the “Increase in plasma CXCL9 vs baseline” value ([20]; cycle 2 day 1) was 1.8 fold. For the same compound, the “Increase in plasma CXCL10 vs baseline” value ([20]; cycle 2 day 1) was 1.4 fold, the “Binding of atezolizumab and durvalumab to PD-L1 after pretreatment” value [21] was “blocked binding” and the IC50 [22] was 3.1 ± 1.2 nM. For the same compound, the “Binding of atezolizumab and durvalumab to PD-L1 (SPR)” value [23] was “inhibited binding”, the EC50 [24] was 4.5 nM and the IC50 [25] was 6.3 ± 2.5 nM. For the same compound, the IC50 [26] was 4.9 ± 1.6 nM, the “Epitope occupancy of PD-L1, clone MIH1” value [27] was > 90% and the “Reduction of PD-L1 staining, clone 28-8 (total cell-surface PD-L1)” value [27] was “approximately 70%”. For the same compound, the “Change in total PD-L1 in cells” value [28] was “decrease of overall PD-L1”, the “Time to maximal PD-L1 internalization” value [29] was ~4 h and the “SEC-MALS peak of PD-L1 in presence of compound” value [1] was ~69 kDa. The “Binding stoichiometry n (ITC)” value [30] was 0.6 and the “PD-L1 internalization, clone 28-8 staining” value [4] was “internalization of PD-L1 and increased cytoplasmic staining”.

— publication PMC9394386 (Cancer Discovery, 2022)
